Source: ChEMBL document CHEMBL4507319 (2021)

Legend:
[1] = target: Serine/threonine-protein kinase B-raf (Homo sapiens) (UniProt P15056); details: Compound concentration 1000.0 nM
[2] = target: T1, Dual specificity tyrosine-phosphorylation-regulated kinase 2 (Homo sapiens) (UniProt Q92630); details: Compound concentration 1000.0 nM
T1 sequence (whole entry): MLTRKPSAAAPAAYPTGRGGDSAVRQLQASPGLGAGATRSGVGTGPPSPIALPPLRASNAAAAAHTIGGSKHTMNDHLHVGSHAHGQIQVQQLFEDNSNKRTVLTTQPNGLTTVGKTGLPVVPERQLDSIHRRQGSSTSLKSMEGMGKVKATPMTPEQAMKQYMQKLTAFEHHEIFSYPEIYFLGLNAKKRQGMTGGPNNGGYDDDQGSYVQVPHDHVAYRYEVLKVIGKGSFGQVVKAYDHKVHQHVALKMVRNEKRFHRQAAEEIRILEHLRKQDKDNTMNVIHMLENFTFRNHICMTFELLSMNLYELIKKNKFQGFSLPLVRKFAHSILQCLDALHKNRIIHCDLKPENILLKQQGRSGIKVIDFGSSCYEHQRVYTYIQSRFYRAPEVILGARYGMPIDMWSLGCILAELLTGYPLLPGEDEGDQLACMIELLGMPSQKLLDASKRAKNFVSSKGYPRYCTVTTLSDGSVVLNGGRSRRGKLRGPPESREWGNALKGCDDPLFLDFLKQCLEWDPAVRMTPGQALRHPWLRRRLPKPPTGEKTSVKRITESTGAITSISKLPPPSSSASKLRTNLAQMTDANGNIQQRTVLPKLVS

[3] = target: Homeodomain-interacting protein kinase 3 (Homo sapiens) (UniProt Q9H422); details: Compound concentration 1000.0 nM
[4] = target: T2, MAP kinase-activated protein kinase 5 (Homo sapiens) (UniProt Q8IW41); details: Compound concentration 1000.0 nM
T2 sequence (whole entry): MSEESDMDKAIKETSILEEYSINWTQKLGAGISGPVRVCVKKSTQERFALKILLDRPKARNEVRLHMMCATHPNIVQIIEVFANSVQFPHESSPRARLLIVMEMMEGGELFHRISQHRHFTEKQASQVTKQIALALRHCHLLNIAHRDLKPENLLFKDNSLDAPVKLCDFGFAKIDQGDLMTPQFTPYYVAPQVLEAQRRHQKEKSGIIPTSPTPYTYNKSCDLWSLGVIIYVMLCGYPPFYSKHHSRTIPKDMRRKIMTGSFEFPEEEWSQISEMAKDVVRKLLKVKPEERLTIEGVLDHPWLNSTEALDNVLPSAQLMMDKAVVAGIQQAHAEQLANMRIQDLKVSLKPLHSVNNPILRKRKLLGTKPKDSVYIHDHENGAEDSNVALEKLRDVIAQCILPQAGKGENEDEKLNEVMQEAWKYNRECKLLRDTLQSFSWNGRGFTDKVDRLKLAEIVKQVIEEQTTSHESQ

[5] = target: Microtubule-associated serine/threonine-protein kinase 1 (Homo sapiens) (UniProt Q9Y2H9); details: Compound concentration 1000.0 nM
[6] = target: Dual specificity mitogen-activated protein kinase kinase 3 (Homo sapiens) (UniProt P46734); details: Compound concentration 1000.0 nM
[7] = target: Serine/threonine-protein kinase PAK 6 (Homo sapiens) (UniProt Q9NQU5); details: Compound concentration 1000.0 nM
[8] = target: Platelet-derived growth factor receptor alpha (Homo sapiens) (UniProt P16234); details: Compound concentration 1000.0 nM
[9] = target: Phosphorylase b kinase gamma catalytic chain, skeletal muscle/heart isoform (Homo sapiens) (UniProt Q16816); details: Compound concentration 1000.0 nM
[10] = target: Serine/threonine-protein kinase PLK1 (Homo sapiens) (UniProt P53350); details: Compound concentration 1000.0 nM
[11] = target: Serine/threonine-protein kinase RIO1 (Homo sapiens) (UniProt Q9BRS2); details: Compound concentration 1000.0 nM
[12] = target: Rho-associated protein kinase 1 (Homo sapiens) (UniProt Q13464); details: Compound concentration 1000.0 nM
[13] = target: Tyrosine-protein kinase SYK (Homo sapiens) (UniProt P43405); details: Compound concentration 1000.0 nM
[14] = target: NT-3 growth factor receptor (Homo sapiens) (UniProt Q16288); details: Compound concentration 1000.0 nM
[15] = target: T3, Serine/threonine-protein kinase ULK2 (Homo sapiens) (UniProt Q8IYT8); details: Compound concentration 1000.0 nM
T3 sequence (whole entry): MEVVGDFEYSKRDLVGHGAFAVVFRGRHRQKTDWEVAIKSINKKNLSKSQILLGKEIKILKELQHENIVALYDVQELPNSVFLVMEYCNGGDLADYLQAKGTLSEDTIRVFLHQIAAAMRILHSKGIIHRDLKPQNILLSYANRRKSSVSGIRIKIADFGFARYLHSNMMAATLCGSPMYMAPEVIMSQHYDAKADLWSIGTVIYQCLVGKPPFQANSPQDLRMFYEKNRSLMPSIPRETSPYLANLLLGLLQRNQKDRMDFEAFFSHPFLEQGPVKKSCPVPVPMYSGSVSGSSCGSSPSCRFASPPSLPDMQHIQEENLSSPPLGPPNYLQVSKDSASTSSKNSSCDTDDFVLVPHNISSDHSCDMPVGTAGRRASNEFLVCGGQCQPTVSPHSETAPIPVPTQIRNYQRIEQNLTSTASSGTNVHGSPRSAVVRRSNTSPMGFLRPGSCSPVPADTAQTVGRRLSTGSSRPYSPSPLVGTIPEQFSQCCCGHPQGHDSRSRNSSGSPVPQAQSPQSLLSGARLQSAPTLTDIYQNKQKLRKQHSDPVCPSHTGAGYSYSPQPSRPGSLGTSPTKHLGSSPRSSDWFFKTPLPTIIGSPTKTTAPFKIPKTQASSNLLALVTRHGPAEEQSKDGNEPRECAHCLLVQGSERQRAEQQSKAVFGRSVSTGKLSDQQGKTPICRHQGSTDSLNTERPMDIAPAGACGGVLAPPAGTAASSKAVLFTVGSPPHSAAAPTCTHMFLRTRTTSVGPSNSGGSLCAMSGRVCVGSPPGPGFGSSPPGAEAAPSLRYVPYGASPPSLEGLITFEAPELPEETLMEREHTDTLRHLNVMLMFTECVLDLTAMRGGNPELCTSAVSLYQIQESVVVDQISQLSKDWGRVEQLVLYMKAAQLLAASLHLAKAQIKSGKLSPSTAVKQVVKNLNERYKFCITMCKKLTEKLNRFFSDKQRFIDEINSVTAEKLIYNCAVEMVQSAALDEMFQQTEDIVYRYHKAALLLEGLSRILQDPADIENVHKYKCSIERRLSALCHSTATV

[16] = target: Sigma intracellular receptor 2 (Homo sapiens, UniProt Q5BJF2); details: Compound concentration 10.0 uM
Chain of Sigma intracellular receptor 2 (Q5BJF2 whole entry): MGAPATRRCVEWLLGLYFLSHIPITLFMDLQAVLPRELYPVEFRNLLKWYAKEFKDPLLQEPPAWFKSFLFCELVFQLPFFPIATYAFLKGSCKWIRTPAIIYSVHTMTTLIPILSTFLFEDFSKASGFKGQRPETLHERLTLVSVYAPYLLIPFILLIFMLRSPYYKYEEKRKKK

Chain of Dual specificity mitogen-activated protein kinase kinase 3 (Homo sapiens) (P46734 whole entry): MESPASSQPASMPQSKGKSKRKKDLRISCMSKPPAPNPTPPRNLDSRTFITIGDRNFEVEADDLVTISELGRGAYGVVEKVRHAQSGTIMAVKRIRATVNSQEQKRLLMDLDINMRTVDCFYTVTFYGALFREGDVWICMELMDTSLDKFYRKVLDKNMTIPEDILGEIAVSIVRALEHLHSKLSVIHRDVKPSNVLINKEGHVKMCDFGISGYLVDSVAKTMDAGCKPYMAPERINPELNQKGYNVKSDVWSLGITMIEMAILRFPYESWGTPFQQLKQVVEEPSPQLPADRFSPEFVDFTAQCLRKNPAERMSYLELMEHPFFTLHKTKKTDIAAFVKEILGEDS
Chain of Serine/threonine-protein kinase RIO1 (Homo sapiens) (Q9BRS2 whole entry): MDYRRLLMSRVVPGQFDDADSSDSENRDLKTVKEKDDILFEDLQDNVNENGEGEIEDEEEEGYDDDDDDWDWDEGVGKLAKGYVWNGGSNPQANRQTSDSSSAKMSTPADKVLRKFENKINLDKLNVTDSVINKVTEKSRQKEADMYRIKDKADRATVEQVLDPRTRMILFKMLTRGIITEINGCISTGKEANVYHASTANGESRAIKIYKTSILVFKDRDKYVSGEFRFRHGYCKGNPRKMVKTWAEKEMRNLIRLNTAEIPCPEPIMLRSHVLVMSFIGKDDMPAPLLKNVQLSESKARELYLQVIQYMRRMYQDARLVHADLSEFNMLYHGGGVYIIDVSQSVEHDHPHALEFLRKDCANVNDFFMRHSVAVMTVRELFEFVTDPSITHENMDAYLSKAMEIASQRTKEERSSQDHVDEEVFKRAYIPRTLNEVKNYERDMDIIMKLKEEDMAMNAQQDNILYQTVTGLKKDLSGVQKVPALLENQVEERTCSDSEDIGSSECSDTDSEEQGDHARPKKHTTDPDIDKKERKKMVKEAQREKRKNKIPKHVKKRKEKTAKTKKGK
Chain of Serine/threonine-protein kinase B-raf (Homo sapiens) (P15056 whole entry): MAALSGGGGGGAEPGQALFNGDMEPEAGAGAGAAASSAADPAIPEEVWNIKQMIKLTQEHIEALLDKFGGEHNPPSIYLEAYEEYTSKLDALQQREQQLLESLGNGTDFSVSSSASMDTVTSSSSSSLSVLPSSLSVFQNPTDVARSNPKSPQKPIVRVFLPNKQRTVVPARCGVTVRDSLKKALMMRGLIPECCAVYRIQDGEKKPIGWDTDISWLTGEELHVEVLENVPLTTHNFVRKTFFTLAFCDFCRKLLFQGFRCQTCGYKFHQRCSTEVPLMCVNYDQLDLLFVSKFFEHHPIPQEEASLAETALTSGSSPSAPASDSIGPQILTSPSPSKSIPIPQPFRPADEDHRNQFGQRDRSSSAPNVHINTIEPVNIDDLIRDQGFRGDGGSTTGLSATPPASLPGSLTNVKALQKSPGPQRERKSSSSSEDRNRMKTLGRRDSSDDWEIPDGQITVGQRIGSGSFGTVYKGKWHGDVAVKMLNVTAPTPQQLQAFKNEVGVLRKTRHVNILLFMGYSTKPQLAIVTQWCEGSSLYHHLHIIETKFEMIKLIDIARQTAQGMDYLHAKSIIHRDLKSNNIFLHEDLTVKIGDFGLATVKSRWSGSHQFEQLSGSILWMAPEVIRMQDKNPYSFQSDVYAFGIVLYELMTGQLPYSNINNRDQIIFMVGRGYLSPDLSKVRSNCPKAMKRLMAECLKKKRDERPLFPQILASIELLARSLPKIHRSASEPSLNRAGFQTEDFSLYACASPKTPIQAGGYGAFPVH
Chain of NT-3 growth factor receptor (Homo sapiens) (Q16288 32-839 limits assumed): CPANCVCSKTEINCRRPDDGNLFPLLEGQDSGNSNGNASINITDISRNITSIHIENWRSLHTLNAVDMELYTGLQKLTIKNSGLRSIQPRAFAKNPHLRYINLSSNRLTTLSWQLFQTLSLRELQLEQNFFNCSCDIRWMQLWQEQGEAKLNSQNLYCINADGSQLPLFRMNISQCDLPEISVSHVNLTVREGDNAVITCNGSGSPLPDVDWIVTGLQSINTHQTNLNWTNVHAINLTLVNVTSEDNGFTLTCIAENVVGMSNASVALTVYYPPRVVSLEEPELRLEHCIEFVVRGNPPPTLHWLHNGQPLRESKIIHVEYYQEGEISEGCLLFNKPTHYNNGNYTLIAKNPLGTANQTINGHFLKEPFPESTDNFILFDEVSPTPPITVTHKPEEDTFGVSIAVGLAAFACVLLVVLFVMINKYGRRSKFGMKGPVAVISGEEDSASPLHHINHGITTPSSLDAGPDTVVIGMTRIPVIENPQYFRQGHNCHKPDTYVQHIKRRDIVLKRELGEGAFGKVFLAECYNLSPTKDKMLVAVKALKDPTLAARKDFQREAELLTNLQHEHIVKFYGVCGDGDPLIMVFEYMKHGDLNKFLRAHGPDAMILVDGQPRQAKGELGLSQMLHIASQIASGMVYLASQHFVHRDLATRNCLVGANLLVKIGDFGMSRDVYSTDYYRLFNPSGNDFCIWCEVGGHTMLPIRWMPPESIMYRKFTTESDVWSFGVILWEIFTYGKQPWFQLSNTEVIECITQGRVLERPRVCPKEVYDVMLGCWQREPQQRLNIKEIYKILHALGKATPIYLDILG
Chain of Platelet-derived growth factor receptor alpha (Homo sapiens) (P16234 whole entry, canonical isoform): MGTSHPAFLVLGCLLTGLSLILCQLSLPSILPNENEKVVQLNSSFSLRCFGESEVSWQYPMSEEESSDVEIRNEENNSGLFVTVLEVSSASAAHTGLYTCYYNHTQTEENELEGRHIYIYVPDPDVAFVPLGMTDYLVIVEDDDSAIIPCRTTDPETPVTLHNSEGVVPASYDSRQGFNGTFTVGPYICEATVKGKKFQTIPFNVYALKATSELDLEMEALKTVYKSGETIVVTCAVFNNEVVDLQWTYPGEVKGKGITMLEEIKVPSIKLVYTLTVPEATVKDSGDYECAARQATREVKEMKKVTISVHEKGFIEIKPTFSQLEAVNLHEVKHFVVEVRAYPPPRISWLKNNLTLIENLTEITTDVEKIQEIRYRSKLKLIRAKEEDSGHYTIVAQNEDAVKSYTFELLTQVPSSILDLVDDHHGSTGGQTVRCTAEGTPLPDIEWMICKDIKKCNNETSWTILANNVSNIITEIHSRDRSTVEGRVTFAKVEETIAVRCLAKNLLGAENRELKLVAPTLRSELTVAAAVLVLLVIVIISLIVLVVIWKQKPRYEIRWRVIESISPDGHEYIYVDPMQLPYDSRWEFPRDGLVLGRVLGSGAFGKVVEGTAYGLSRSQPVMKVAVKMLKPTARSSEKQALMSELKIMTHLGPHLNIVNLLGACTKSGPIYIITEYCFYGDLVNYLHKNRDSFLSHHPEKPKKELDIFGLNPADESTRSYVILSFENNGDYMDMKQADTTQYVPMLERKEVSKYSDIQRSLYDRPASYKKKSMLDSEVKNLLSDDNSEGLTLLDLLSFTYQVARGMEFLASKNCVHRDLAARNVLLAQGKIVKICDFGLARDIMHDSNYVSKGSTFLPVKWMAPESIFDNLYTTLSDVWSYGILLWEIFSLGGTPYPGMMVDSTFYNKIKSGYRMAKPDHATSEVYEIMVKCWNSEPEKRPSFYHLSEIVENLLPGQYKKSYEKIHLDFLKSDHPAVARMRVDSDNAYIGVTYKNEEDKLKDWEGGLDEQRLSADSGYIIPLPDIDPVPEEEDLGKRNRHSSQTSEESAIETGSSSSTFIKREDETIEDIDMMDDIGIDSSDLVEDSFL
Chain of Homeodomain-interacting protein kinase 3 (Homo sapiens) (Q9H422 whole entry, looked up): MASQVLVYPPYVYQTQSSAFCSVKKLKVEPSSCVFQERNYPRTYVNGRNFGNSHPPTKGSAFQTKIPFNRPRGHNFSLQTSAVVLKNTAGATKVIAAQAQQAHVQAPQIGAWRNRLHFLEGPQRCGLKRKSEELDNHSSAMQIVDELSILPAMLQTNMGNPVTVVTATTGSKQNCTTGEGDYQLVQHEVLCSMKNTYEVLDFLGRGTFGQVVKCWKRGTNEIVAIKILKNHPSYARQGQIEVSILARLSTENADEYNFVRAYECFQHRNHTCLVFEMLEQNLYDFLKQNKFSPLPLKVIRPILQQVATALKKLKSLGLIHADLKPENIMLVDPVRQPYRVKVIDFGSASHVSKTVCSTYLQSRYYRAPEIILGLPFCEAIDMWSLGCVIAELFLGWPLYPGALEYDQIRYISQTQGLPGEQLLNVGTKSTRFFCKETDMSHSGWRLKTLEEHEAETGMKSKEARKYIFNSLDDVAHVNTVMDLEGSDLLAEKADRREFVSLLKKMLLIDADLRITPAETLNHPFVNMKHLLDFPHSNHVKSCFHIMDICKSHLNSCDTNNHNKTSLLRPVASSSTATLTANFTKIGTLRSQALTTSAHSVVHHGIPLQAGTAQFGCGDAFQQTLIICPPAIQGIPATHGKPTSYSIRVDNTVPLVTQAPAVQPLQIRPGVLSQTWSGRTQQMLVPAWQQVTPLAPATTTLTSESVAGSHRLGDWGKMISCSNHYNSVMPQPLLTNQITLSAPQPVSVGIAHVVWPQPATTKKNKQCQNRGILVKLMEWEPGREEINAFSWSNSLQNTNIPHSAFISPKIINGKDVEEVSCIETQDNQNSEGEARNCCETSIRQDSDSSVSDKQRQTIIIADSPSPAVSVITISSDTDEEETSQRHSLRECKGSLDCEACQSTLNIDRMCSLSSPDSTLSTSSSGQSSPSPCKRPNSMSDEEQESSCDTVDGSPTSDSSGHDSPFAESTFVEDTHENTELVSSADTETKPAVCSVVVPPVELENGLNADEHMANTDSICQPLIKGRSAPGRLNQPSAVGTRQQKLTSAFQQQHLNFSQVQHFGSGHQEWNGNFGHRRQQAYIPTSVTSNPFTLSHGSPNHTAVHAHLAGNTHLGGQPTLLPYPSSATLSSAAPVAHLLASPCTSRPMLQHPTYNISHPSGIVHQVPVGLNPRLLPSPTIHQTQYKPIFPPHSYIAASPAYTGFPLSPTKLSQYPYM

Structure (SMILES) | residual activity [1] [%] | residual activity [2] [%] | residual activity [3] [%] | residual activity [4] [%] | residual activity [5] [%] | residual activity [6] [%] | residual activity [7] [%] | residual activity [8] [%] | residual activity [9] [%] | residual activity [10] [%] | residual activity [11] [%] | residual activity [12] [%] | residual activity [13] [%] | residual activity [14] [%] | residual activity [15] [%] | inhibition [16] [%]
CC1=C(C#N)C(c2ccc3c(c2)c(NC(=O)c2ccccc2C)nn3C)C(C#N)=C(C)N1 [BAY-974] | 47 | 100 | 73 | 100 | 92 | 91 | 100 | 86 | 91 | 85 | 93 | 100 | 100 | 83 | 72 | 51.2
CCc1ccccc1C(=O)Nc1n[nH]c2c(C)c(F)c(C3C(C#N)=C(C)N(C)C(C)=C3C#N)cc12 [BAY-3827] | 78 | 82 | 100 | 100 | 100 | 97 | 93 | 100 | 44 | 100 | 82 | 100 | 100 | 100 | 100 | 78.3
